Biological target: T1, RXFP2 (Homo sapiens, UniProt Q8WXD0)
T1 construct: expressed in transfected cells
Assay: HTRF cAMP assay in HEK293T cells stably expressing RXFP2 (HEK-RXFP2)
Assay type: cell-based
Details: IBMX 200 μM; for % EFF vs. 1 nM INSL3 (a): condition (a): 20,000 cells/well, maximum cAMP response normalized to 1 nM INSL3 response; for EC50 / % EFF vs. 1 nM INSL3 (b): condition (b): 10,000 cells/well; for % EFF vs. 1 nM INSL3 (b): normalized to 1 nM INSL3 cAMP response
Procedure: Compound efficacy and EC50 were determined by measuring cAMP induction in vitro. HEK293T cells stably expressing RXFP2 (HEK-RXFP2) produce cAMP when RXFP2 is activated, which can be measured in an antibody-based immunoassay utilizing a fluorescent readout (cAMP Gs HiRange Kit, PerkinElmer, Waltham, MA). HEK-RXFP2 cells were seeded in 96-well plates in serum-free DMEM and incubated overnight at 37° C., 5% CO2. Plates were then treated with a compound titration up to 25 μM or INSL3 control, in the presence of isobutylmethylxanthine phosphodiesterase inhibitor (IBMX) at 200 μM to amplify the cAMP signal, for 1 hour at 37° C., 5% CO2 before being processed as per kit instructions. Table 7 lists the efficacy and EC50 of compounds tested under different experimental conditions. […] In condition (a), 20,000 cells were seeded per well in the 96 well plate, and efficacy was determined by normalizing the maximum compound cAMP response to the 1 nM INSL3 cAMP response (% Efficacy 1 nM INSL3 (a)). In condition (b), 10,000 cells were seeded per well, and compound response was normalized to the 1 nM INSL3 cAMP response (% Efficacy 1 nM INSL3 (b)). In condition (c), 7,500 cells were seeded per well, compound response was normalized to the 100 nM INSL3 cAMP response, and IBMX was omitted (% Efficacy 100 nM INSL3 (c)). A range is given when compounds were tested multiple times. Where compounds were tested under multiple experimental conditions, the EC50 listed for the corresponding condition is marked (a) through (c) to correlate. When EC50 could not be calculated from the dose-response curve, EC50 is listed as not determined (ND).

T1 sequence (Q8WXD0 whole entry): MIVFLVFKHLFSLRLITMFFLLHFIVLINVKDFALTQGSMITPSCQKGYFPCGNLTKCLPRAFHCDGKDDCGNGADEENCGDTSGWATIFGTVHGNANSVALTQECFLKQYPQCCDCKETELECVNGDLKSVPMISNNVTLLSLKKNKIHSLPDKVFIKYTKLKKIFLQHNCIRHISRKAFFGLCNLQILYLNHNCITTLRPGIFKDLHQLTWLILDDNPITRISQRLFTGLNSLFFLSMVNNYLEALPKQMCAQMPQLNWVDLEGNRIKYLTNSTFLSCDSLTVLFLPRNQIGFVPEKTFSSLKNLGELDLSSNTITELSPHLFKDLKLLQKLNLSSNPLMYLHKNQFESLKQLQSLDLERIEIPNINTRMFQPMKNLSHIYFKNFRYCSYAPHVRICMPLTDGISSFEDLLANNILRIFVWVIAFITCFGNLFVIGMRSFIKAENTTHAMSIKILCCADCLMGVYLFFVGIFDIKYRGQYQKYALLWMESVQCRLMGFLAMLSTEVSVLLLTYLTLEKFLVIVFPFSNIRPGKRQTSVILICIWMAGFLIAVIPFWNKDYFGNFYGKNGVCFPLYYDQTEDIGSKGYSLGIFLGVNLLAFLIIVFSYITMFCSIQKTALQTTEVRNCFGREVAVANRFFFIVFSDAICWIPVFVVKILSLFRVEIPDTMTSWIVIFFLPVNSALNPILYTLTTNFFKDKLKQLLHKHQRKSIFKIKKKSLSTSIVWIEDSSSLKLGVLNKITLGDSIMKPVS

% EFF vs. 1 nM INSL3 (a) [%]	EC50 [nM]	% EFF vs. 1 nM INSL3 (b)	SMILES
43.71	–	–	O=C1Nc2ccc(-c3cccc(C(F)(F)F)c3)cc2C(=O)N2CCN(C(=O)COc3ccc(OC(F)(F)F)cc3Cl)C[C@H]12 [Example 118, (R)-2-(2-(2-chloro-4-(trifluoromethoxy)phenoxy)acetyl)-8-(3-(trifluoromethyl)phenyl)-1,3,4,12a-tetrahydrobenzo[e]pyrazino[1,2-a][1,4]diazepine-6,12 (2H, 11H)-dione]
–	8.6	70.76%	Cc1cc(OC(F)(F)F)ccc1OCC(=O)N1CCN2C(=O)c3cc(-c4cccc(C(F)(F)F)c4)ccc3NC(=O)[C@@H]2C1 [Example 120, (S)-2-(2-(2-methyl-4-(trifluoromethoxy)phenoxy)acetyl)-8-(3-(trifluoromethyl)phenyl)-1,3,4,12a-tetrahydrobenzo[e]pyrazino[1,2-a][1,4]diazepine-6,12 (2H, 11H)-dione]
28.28	–	–	Cc1cc(OC(F)(F)F)ccc1OCC(=O)N1CCN2C(=O)c3cc(-c4cccc(C(F)(F)F)c4)ccc3NC(=O)[C@H]2C1 [Example 121, (R)-2-(2-(2-methyl-4-(trifluoromethoxy)phenoxy)acetyl)-8-(3-(trifluoromethyl)phenyl)-1,3,4,12a-tetrahydrobenzo[e]pyrazino[1,2-a][1,4]diazepine-6,12 (2H, 11H)-dione]
–	12	84.99%	O=C1Nc2ccc(-c3cc(C(F)(F)F)ccc3F)cc2C(=O)N2CCN(C(=O)COc3ccc(OC(F)(F)F)cc3Cl)C[C@@H]12 [Example 127, (S)-2-(2-(2-chloro-4-(trifluoromethoxy)phenoxy)acetyl)-8-(2-fluoro-5-(trifluoromethyl)phenyl)-1,3,4,12a-tetrahydrobenzo[e]pyrazino[1,2-a][1,4]diazepine-6,12 (2H, 11H)-dione]
–	–	54.37%	O=C1Nc2ccc(-c3cc(C(F)(F)F)ccc3F)cc2C(=O)N2CCN(C(=O)COc3ccc(OC(F)(F)F)cc3Cl)C[C@H]12 [Example 130, (R)-2-(2-(2-chloro-4-(trifluoromethoxy)phenoxy)acetyl)-8-(2-fluoro-5-(trifluoromethyl)phenyl)-1,3,4,12a-tetrahydrobenzo[e]pyrazino[1,2-a][1,4]diazepine-6,12 (2H, 11H)-dione]
–	–	68.09%	O=C1Nc2ccc(-c3cc(C(F)(F)F)ccc3F)cc2C(=O)N2CCN(C(=O)COc3ccc(C(F)(F)F)cc3Cl)C[C@@H]12 [Example 132, (S)-2-(2-(2-chloro-4-(trifluoromethyl)phenoxy)acetyl)-8-(2-fluoro-5-(trifluoromethyl)phenyl)-1,3,4,12a-tetrahydrobenzo[e]pyrazino[1,2-a][1,4]diazepine-6,12 (2H, 11H)-dione]
–	67 to 89.4	92.5-107.57%	Cc1ccc(C(F)(F)F)cc1-c1ccc2c(c1)C(=O)N1CCN(C(=O)COc3ccc(OC(F)(F)F)cc3Cl)C[C@H]1C(=O)N2 [Example 136, (S)-2-(2-(2-Chloro-4-(trifluoromethoxy)phenoxy)acetyl)-8-(2-methyl-5-(trifluoromethyl)phenyl)-1,3,4,12a-tetrahydrobenzo[e]pyrazino[1,2-a][1,4]diazepine-6,12 (2H, 11H)-dione]
–	–	53.62%	Cc1ccc(C(F)(F)F)cc1-c1ccc2c(c1)C(=O)N1CCN(C(=O)COc3ccc(C(F)(F)F)cc3Cl)C[C@H]1C(=O)N2 [Example 137, (S)-2-(2-(2-chloro-4-(trifluoromethyl)phenoxy)acetyl)-8-(2-methyl-5-(trifluoromethyl)phenyl)-1,3,4,12a-tetrahydrobenzo[e]pyrazino[1,2-a][1,4]diazepine-6,12 (2H, 11H)-dione]
–	36 to 54.5	95.53-115.85%	Cc1cc(OC(F)(F)F)ccc1OCC(=O)N1CCN2C(=O)c3cc(-c4cc(F)cc(C(F)(F)F)c4)ccc3NC(=O)[C@@H]2C1 [Example 141, (S)-8-(3-fluoro-5-(trifluoromethyl)phenyl)-2-(2-(2-methyl-4-(trifluoromethoxy)phenoxy)acetyl)-1,3,4,12a-tetrahydrobenzo[e]pyrazino[1,2-a][1,4]diazepine-6,12 (2H, 11H)-dione]
–	48	80.32%	O=C1Nc2ccc(-c3cc(F)cc(C(F)(F)F)c3)cc2C(=O)N2CCN(C(=O)COc3ccc(C(F)(F)F)cc3Cl)C[C@@H]12 [Example 142, (S)-2-(2-(2-chloro-4-(trifluoromethyl)phenoxy)acetyl)-8-(3-fluoro-5-(trifluoromethyl)phenyl)-1,3,4,12a-tetrahydrobenzo[e]pyrazino[1,2-a][1,4]diazepine-6,12 (2H, 11H)-dione]
–	–	47.43%	O=C1Nc2ccc(-c3cccc(C(F)(F)F)c3)cc2C(=O)N2CCN(C(=O)COc3ccc(C(F)(F)F)c(F)c3F)C[C@@H]12 [Example 146, (S)-2-(2-(2,3-difluoro-4-(trifluoromethyl)phenoxy)acetyl)-8-(3-(trifluoromethyl)phenyl)-1,3,4,12a-tetrahydrobenzo[e]pyrazino[1,2-a][1,4]diazepine-6,12 (2H, 11H)-dione]
–	22.2	103.32%	Cc1cc(-c2ccc3c(c2)C(=O)N2CCN(C(=O)COc4ccc(OC(F)(F)F)cc4Cl)C[C@H]2C(=O)N3)cc(C(F)(F)F)c1 [Example 150, (S)-2-(2-(2-chloro-4-(trifluoromethoxy)phenoxy)acetyl)-8-(3-methyl-5-(trifluoromethyl)phenyl)-1,3,4,12a-tetrahydrobenzo[e]pyrazino[1,2-a][1,4]diazepine-6,12 (2H, 11H)-dione]
–	–	0.85%	Cc1cc(-c2ccc3c(c2)C(=O)N2CCN(C(=O)COc4ccc(OC(F)(F)F)cc4Cl)C[C@H]2CN3)cc(C(F)(F)F)c1.O=C(O)C(F)(F)F [Example 151, (R)-2-(2-(2-chloro-4-(trifluoromethoxy)phenoxy)acetyl)-8-(3-methyl-5-(trifluoromethyl)phenyl)-1,3,4,11,12,12a-hexahydrobenzo[e]pyrazino[1,2-a][1,4]diazepin-6 (2H)-one-2,2,2-trifluoroacetate]
–	39.1	108.89%	O=C1Nc2ccc(-c3cc(C(F)(F)F)cc(C(F)(F)F)c3)cc2C(=O)N2CCN(C(=O)COc3ccc(OC(F)(F)F)cc3Cl)C[C@@H]12 [Example 157, (S)-8-(3,5-Bis(trifluoromethyl)phenyl)-2-(2-(2-chloro-4-(trifluoromethoxy)phenoxy)acetyl)-1,3,4,12a-tetrahydrobenzo[e]pyrazino[1,2-a][1,4]diazepine-6,12 (2H, 11H)-dione]
–	121	130.93%	O=C1Nc2ccc(-c3cc(Cl)cc(C(F)(F)F)c3)cc2C(=O)N2CCN(C(=O)COc3ccc(OC(F)(F)F)cc3Br)C[C@@H]12 [Example 162, (S)-2-(2-(2-Bromo-4-(trifluoromethoxy)phenoxy)acetyl)-8-(3-chloro-5-(trifluoromethyl)phenyl)-1,3,4,12a-tetrahydrobenzo[e]pyrazino[1,2-a][1,4]diazepine-6,12 (2H, 11H)-dione]
–	–	114.25%	O=C1Nc2ccc(-c3cc(Cl)cc(C(F)(F)F)c3)cc2C(=O)N2CCN(C(=O)COc3ccc(OC(F)(F)F)cc3Cl)C[C@@H]12 [Example 163, (S)-2-(2-(2-chloro-4-(trifluoromethoxy)phenoxy)acetyl)-8-(3-chloro-5-(trifluoromethyl)phenyl)-1,3,4,12a-tetrahydrobenzo[e]pyrazino[1,2-a][1,4]diazepine-6,12 (2H, 11H)-dione]
–	–	126.02%	Cc1cc(OC(F)(F)F)ccc1OCC(=O)N1CCN2C(=O)c3cc(-c4cc(Cl)cc(C(F)(F)F)c4)ccc3NC(=O)[C@@H]2C1 [Example 164, (S)-8-(3-chloro-5-(trifluoromethyl)phenyl)-2-(2-(2-methyl-4-(trifluoromethoxy)phenoxy)acetyl)-1,3,4,12a-tetrahydrobenzo[e]pyrazino[1,2-a][1,4]diazepine-6,12 (2H, 11H)-dione]
–	236	132.67%	Cc1cc(OC(F)F)ccc1OCC(=O)N1CCN2C(=O)c3cc(-c4cccc(C(F)(F)F)c4)ccc3NC(=O)[C@@H]2C1 [Example 166, (S)-2-(2-(4-(difluoromethoxy)-2-methylphenoxy)acetyl)-8-(3-(trifluoromethyl)phenyl)-1,3,4,12a-tetrahydrobenzo[e]pyrazino[1,2-a][1,4]diazepine-6,12 (2H, 11H)-dione]
–	142	113.26%	Cc1cc(OC(F)F)ccc1OCC(=O)N1CCN2C(=O)c3cc(-c4cc(C(F)(F)F)cc(C(F)(F)F)c4)ccc3NC(=O)[C@@H]2C1 [Example 167, (S)-2-(2-(4-(difluoromethoxy)-2-methylphenoxy)acetyl)-8-(3-(trifluoromethyl)-5-(trifluoromethyl)phenyl)-1,3,4,12a-tetrahydrobenzo[e]pyrazino[1,2-a][1,4]diazepine-6,12 (2H, 11H)-dione]
